Key:
[1] = human, in vivo
Description: A 7 T [Tesla] whole-body MRI instrument (Siemens, Erlangen Germany), with quadrature transmission and 24-channel phased-array receive head RF coils, was used. Dynamic measurements employed a single-slice inversion recovery (IR) turboflash technique (Haase A. Snapshot FLASH MRI. Applications to T1, T2, and chemical-shift imaging. Magn. Reson. Med. 1990; 13: 77-89), sampling magnetization eight post-inversion times [TIs]: the inversion pulse was non-selective. […] Gadoteridol [ProHance; Bracco Diagnostics, Inc.] was injected into an antecubital vein catheter at 2.5 mL/s using a power injector [Medrad] to deliver a dose of 28 μmol/kg (typically ^˜5 mL), followed by a 15 mL saline flush at the same rate. […] Parametric R1 maps were calculated on a voxel basis by fitting the signal magnitude at each TI with a full Bloch simulation incorporating all RF pulses and delays. […]
Dynamic measurements were obtained using a single-slice inversion recovery (IR) turboflash technique that sampled magnetization at eight time points post inversion. […] Parametric R1 maps were calculated on a voxel basis by fitting the magnitude signal intensity at each inversion time to a full Bloch simulation that incorporated all RF pulses and delays and modeled the recovery from inversion as a two-parameter single exponential using a gradient expansion algorithm. […]

human prostate tumor = details: cited from earlier work
Na+/K+-ATPase = details: within 15 minutes of direct application to the striatum; cited from earlier work
[2] = human, in vivo, iv; cited from earlier work

Compound: CC(O)CN1CCN(CC(=O)[O-])CCN(CC(=O)[O-])CCN(CC(=O)[O-])CC1.[Gd+3] (stereo not shown) [GdHPDO3A, gadoteridol]
- maximum K^trans in the lesion center [1]: above 2×10^−3 min^−1

Compound: CC(=O)[13C](=O)O [[1-^13C]pyruvate]
- [1-13C]pyruvate to [1-13C]lactate conversion rate constant (human prostate tumor): 0.045 s⁻¹

Compound: C[C@@H]1O[C@@H](O[C@H]2C[C@@H](O)[C@]3(CO)[C@H]4[C@H](O)C[C@]5(C)[C@@H](C6=CC(=O)OC6)CC[C@]5(O)[C@@H]4CC[C@]3(O)C2)[C@H](O)[C@H](O)[C@H]1O [ouabain]
- ADC drop (Na+/K+-ATPase): 40%

Compound: ferumoxytol [Fe-tol]
- plasma t1/2 [2]: 14 h
